According to PMC8222276 (Communications Biology, 2021):

How the values were obtained:
Assay type in all cases: cell-based
[1] = target: T1, CGRP receptor (CLR-RAMP1) in human cardiomyocytes (HCMs) (Homo sapiens, UniProt O60894+Q16602); assay: mobilisation of Ca2+i in HCMs
T1 construct: primary human cardiomyocytes (HCMs) since these cells only expressed CLR and RAMP1; host or cells: primary human cardiomyocytes (HCMs)
Experimental: (§1) Data are analysed using a three-parameter non-linear regression curve or the operational model of receptor agonism. g, h Signalling bias plots were calculated as ∆Log(τ/KA) (g) or ∆∆Log(τ/KA) (h) for each agonist and for each signalling pathway. […] All data represent mean ± SEM for n repeats.
All cell lines were plated at 20,000 cells/well on 96-well black clear-bottom plates (Costar, UK) 24 h before the experiment. […] Cells were then washed twice with calcium-free HBSS, then were left in 100 μl calcium-free HBSS for the duration of the assay. In conditions where Gαq/11/14 signalling is inhibited, cells were pre-treated with 100 nM YM-254890 (Alpha Laboratories, UK) (30 min)[22]. All assays were performed using the BD Pathway 855 Bioimaging Systems (BD Biosciences, UK), which dispenses ligands (20 μl) and reads immediately for 2 min. Data was normalised to the response seen with 10 μM Ionomycin.
(§2) All sample sizes were determined, and data analysed, in accordance with the guidelines described by Curtis M et al.[65]. All experiments were appropriately controlled using ‘system pathway’ agonists. If any of these pathway controls generated inappropriate responses, then the entire data set was removed from analysis. […] Data analysis for cAMP accumulation, Ca^2+i mobilisation, NO accumulation, pERK1/2 activation, and cell proliferation assays were performed in GraphPad Prism 8.4 (GraphPad Software, San Diego). Data were fitted to obtain concentration–response curves using either the three-parameter logistic equation using to obtain values of Emax and pEC50 or the operational model of agonism. Statistical differences were analysed using one-way ANOVA followed by Dunnett’s post-hoc (for comparisons amongst more than two groups) or unpaired Student’s t test with Welch’s correction (for comparison between two groups). To account for the day-to-day variation experienced from the cultured cells, we used the maximal level of cAMP accumulation from cells in response to 100 μM forskolin stimulation was used as a reference, 10 μM ionomycin for Ca^2+i assays, 10 μM phorbol 12-myristate 13-acetate (PMA) for pERK1/2 activation, 10 μM acetylcholine for NO production and 10 μM VEGF for cell proliferation. […] Where appropriate the operational model for receptor agonism[27] was used to obtain efficacy (τ) and equilibrium disassociation constant (KA) values. In both cases, this normalisation removes the variation due to differences in days but retains the variance for control values. The means of individual experiments were combined to generate the curves shown. Having obtained values for τ and KA these were then used to quantify signalling bias as the change in Log(τ/KA)[19],[28]. Error for this composite measure was propagated by applying Eq. 1.1 PooledSEM=(SEMA)^2+(SEMB)^2 Where, SEMA and SEMB are the standard error of measurement A and B.

[2] = target: T2, CGRP receptor (CLR-RAMP1) in RAMP1-HUVECs (Homo sapiens, UniProt O60894+Q16602); assay: mobilisation of Ca2+i in RAMP1-HUVECs
T2 construct: biased agonism at the endogenous CLR in a physiological system; the open reading frame of RAMP1 into our HUVEC∆RAMP2 cell line; host or cells: HUVEC-∆RAMP2 (CRISPR-Cas9 RAMP2 knockout pool), lentiviral transduction, blasticidin selection
T2 sequence (Q16602 23-461): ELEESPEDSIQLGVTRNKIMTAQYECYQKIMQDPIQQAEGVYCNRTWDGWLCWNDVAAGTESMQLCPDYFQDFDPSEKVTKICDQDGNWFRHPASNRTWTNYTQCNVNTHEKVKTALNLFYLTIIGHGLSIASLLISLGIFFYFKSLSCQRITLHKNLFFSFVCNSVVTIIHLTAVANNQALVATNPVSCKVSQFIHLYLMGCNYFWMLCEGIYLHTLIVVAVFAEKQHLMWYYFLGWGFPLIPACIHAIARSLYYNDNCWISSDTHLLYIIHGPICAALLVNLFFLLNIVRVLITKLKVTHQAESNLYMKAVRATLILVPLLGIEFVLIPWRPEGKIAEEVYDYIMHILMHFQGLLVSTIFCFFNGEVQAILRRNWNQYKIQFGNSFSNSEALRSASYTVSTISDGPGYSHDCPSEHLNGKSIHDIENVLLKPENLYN
T2 sequence (O60894 27-148): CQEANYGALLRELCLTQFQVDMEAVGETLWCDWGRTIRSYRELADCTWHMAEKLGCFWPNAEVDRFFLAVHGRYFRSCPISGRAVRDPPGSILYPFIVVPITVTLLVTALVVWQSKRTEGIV
Experimental: (§3) Data are analysed using a three-parameter non-linear regression curve or the operational model of receptor agonism. g–h Signalling bias plots were calculated as ∆Log(τ/KA) (g) or ∆∆Log(τ/KA) (h) for each agonist and for each signalling pathway. […] All data represent mean ± SEM for n repeats.
All cell lines were plated at 20,000 cells/well on 96-well black clear-bottom plates (Costar, UK) 24 h before the experiment. […] Cells were then washed twice with calcium-free HBSS, then were left in 100 μl calcium-free HBSS for the duration of the assay. […] Data was normalised to the response seen with 10 μM Ionomycin.
All sample sizes were determined, and data analysed, in accordance with the guidelines described by Curtis M et al.[65]. All experiments were appropriately controlled using ‘system pathway’ agonists. If any of these pathway controls generated inappropriate responses, then the entire data set was removed from analysis. […] Data analysis for cAMP accumulation, Ca^2+i mobilisation, NO accumulation, pERK1/2 activation, and cell proliferation assays were performed in GraphPad Prism 8.4 (GraphPad Software, San Diego). Data were fitted to obtain concentration–response curves using either the three-parameter logistic equation using to obtain values of Emax and pEC50 or the operational model of agonism. Statistical differences were analysed using one-way ANOVA followed by Dunnett’s post-hoc (for comparisons amongst more than two groups) or unpaired Student’s t test with Welch’s correction (for comparison between two groups).

[3] = target: T2, CGRP receptor (CLR-RAMP1) in RAMP1-HUVECs; assay: ERK1/2 phosphorylation in RAMP1-HUVECs
Experimental: as §3
(§4) Primary cells were grown in 6 well plates, on the day of the experiment media was replaced with serum free media 4 h prior to cell harvesting. Tyrpsin-EDTA was used to dissociate the cells and they were collected by centrifugation, counted and re-suspended HBSS/BSA (0.1%). Ligands were also diluted in HBSS/BSA. Cells were then plated on 384 well plates in 8 μl aliquots at a density of 20,000 cells/well. Next, ligands were added (4 μl) for 5 min stimulation at room temperature. Cells were then lysed as per to the manufacturer’s instructions with 4 μl of lysis buffer (Cisbio phosphor-ERK1/2 cellular assay kit, Invitrogen, UK) for 30 min shaking at room temperature. The 2 specific antibodies; were pre-mixed in a 1:1 ratio. 4 μl of this was added to each well and the plate incubated for a further 2 h.
All sample sizes were determined, and data analysed, in accordance with the guidelines described by Curtis M et al.[65]. All experiments were appropriately controlled using ‘system pathway’ agonists. If any of these pathway controls generated inappropriate responses, then the entire data set was removed from analysis.

[4] = target: T1, CGRP receptor (CLR-RAMP1) in human cardiomyocytes (HCMs); assay: ERK1/2 phosphorylation in HCMs
Experimental: as §1, §4, §2

[5] = Ca2+i, HCM, operational model, mean ± SEM
[6] = Ca2+i, RAMP1-HUVEC, operational model, mean ± SEM
[7] = pERK1/2, RAMP1-HUVEC, operational model, mean ± SEM
[8] = pERK1/2, HCM, operational model, mean ± SEM

T1 sequence (Q16602 23-461): as the sequence (Q16602 23-461) above
T1 sequence (O60894 27-148): as the sequence (O60894 27-148) above

| Compound | Emax [1] | Transducer coefficient Log(τ/KA) ([1]; Ca2+i, HCM, calculated from Table S2) | logτ [1, 5] | pKA [1, 5] | Emax [2] | Transducer coefficient Log(τ/KA) ([2]; Ca2+i, RAMP1-HUVEC, calculated from Table S2) | logτ [2, 6] | pKA [2, 6] | Emax [3] | Transducer coefficient Log(τ/KA) ([3]; pERK1/2, RAMP1-HUVEC, calculated from Table S2) | logτ [3, 7] | pKA [3, 7] | Emax [4] | Transducer coefficient Log(τ/KA) ([4]; pERK1/2, HCM, calculated from Table S2) | logτ [4, 8] | pKA [4, 8] | Emax ([1]; Ca2+i, HCM, relative to 10 μM ionomycin, mean ± SEM, read-out: Emax) | Emax ([2]; Ca2+i, RAMP1-HUVEC, relative to 10 μM ionomycin, mean ± SEM, read-out: Emax) | Emax ([3]; pERK1/2, RAMP1-HUVEC, 5 min, relative to 10 μM PMA, mean ± SEM, read-out: Emax) | Emax ([4]; pERK1/2, HCM, 5 min, relative to 10 μM PMA, mean ± SEM, read-out: Emax) |
| --- | --- | --- | --- | --- | --- | --- | --- | --- | --- | --- | --- | --- | --- | --- | --- | --- | --- | --- | --- | --- |
| CSCC[C@H](NC(=O)[C@H](CC(C)C)NC(=O)[C@H](CCC(N)=O)NC(=O)[C@H](Cc1c[nH]c2ccccc12)NC(=O)[C@H](CC(C)C)NC(=O)[C@H](CCCNC(=N)N)NC(=O)[C@H](Cc1c[nH]cn1)NC(=O)[C@H](CO)NC(=O)[C@H](CC(C)C)NC(=O)[C@H](CC(N)=O)NC(=O)[C@H](CCC(N)=O)NC(=O)[C@@H](NC(=O)[C@H](CCC(N)=O)NC(=O)[C@@H]1CSSC[C@H](NC(=O)CNC(=O)[C@@H](NC(=O)[C@H](CCCNC(=N)N)NC(=O)[C@H](CC(C)C)NC(=O)[C@H](CC(C)C)NC(=O)[C@H](CCC(N)=O)NC(=O)[C@H](C)NC(=O)[C@H](CCC(N)=O)NC(=O)[C@@H](N)[C@@H](C)O)C(C)C)C(=O)N[C@@H](C(C)C)C(=O)N[C@@H](CC(C)C)C(=O)NCC(=O)N[C@@H]([C@@H](C)O)C(=O)N1)C(C)C)C(=O)NCC(=O)N1CCC[C@H]1C(=O)N[C@@H](C)C(=O)NCC(=O)N[C@@H](CCCNC(=N)N)C(=O)N[C@@H](CCC(N)=O)C(=O)N[C@@H](CC(=O)O)C(=O)N[C@@H](CO)C(=O)N[C@@H](C)C(=O)N1CCC[C@H]1C(=O)N[C@H](C(=O)N[C@@H](CC(=O)O)C(=O)N1CCC[C@H]1C(=O)N[C@@H](CO)C(=O)N[C@@H](CO)C(=O)N1CCC[C@H]1C(=O)N[C@@H](Cc1c[nH]cn1)C(=O)N[C@@H](CO)C(=O)N[C@@H](Cc1ccc(O)cc1)C(N)=O)C(C)C [AM2, adrenomedullin 2] | 36.5 ± 2.31% | 7.61±0.35 | -0.30±0.05 | 7.91±0.35 | 41 ± 2.26% | 5.46±0.19 | -0.18±0.06 | 5.64±0.18 | 45.4 ± 2.89% | 6.50±0.15 | -0.06±0.05 | 6.56±0.14 | 40.4 ± 4.17% | 5.32±0.20 | -0.20±0.08 | 5.52±0.18 | – | – | – | – |
| CC[C@H](C)[C@H](NC(=O)[C@H](CCC(N)=O)NC(=O)[C@H](Cc1c[nH]cn1)NC(=O)[C@H](C)NC(=O)[C@H](CC(C)C)NC(=O)[C@H](CCCCN)NC(=O)[C@H](CCC(N)=O)NC(=O)[C@@H](NC(=O)[C@@H](NC(=O)[C@@H]1CSSC[C@H](NC(=O)CNC(=O)[C@H](Cc2ccccc2)NC(=O)[C@H](CO)NC(=O)[C@H](CCCNC(=N)N)NC(=O)[C@H](CC(C)C)NC(=O)CNC(=O)[C@H](CCC(N)=O)NC(=O)[C@H](Cc2ccccc2)NC(=O)[C@H](CC(N)=O)NC(=O)[C@H](CC(N)=O)NC(=O)[C@H](CCSC)NC(=O)[C@H](CO)NC(=O)[C@H](CCC(N)=O)NC(=O)[C@H](CCCNC(=N)N)NC(=O)[C@@H](N)Cc2ccc(O)cc2)C(=O)N[C@@H](CCCNC(=N)N)C(=O)N[C@@H](Cc2ccccc2)C(=O)NCC(=O)N[C@@H]([C@@H](C)O)C(=O)N1)[C@@H](C)O)C(C)C)C(=O)N[C@@H](Cc1ccc(O)cc1)C(=O)N[C@@H](CCC(N)=O)C(=O)N[C@@H](Cc1ccccc1)C(=O)N[C@H](C(=O)N[C@@H](CC(=O)O)C(=O)N[C@@H](CCCCN)C(=O)N[C@@H](CC(=O)O)C(=O)N[C@@H](CCCCN)C(=O)N[C@@H](CC(=O)O)C(=O)N[C@@H](CC(N)=O)C(=O)N[C@H](C(=O)N[C@@H](C)C(=O)N1CCC[C@H]1C(=O)N[C@@H](CCCNC(=N)N)C(=O)N[C@@H](CO)C(=O)N[C@@H](CCCCN)C(=O)N[C@H](C(=O)N[C@@H](CO)C(=O)N1CCC[C@H]1C(=O)N[C@@H](CCC(N)=O)C(=O)NCC(=O)N[C@@H](Cc1ccc(O)cc1)C(N)=O)[C@@H](C)CC)C(C)C)[C@@H](C)O [AM, adrenomedullin] | – | – | – | – | – | – | – | – | – | – | – | – | – | – | – | – | 58.12 ± 0.15% | 44.1 ± 1.42% | 47.6 ± 1.48% | 40.1 ± 2.02% |
